# Measured values from paper PMC11876601 (Molecular Systems Biology, 2025).
# Like-named read-outs stand apart in the source and are kept apart here.
# Experiments:
# 13 PDAC cell lines = assay: Phenotypic drug combination viability screen (ATPlite, 72 h), cell line panel; format: cell-based, human; settings: for synergy with GEM (Bliss model, ΣAUC∆ > 10%): any of the cell lines, GEM low and GEM high; for median AUC across all cell lines: single agent, 72 h
# Protocol: (§1) Cell viability was assessed by measuring ATP levels to indicate metabolic activity.
# (§2) Afterward, small amounts were transferred to 384-well intermediate plates (Greiner Bio-One GmbH, Germany). […] For drug combination screening, 1000 to 5000 cells were seeded into 384-well plates (CulturPlate™, Perkin Elmer, MA, USA) using a Multidrop™ Combi Reagent Dispenser (Thermo Scientific, MA, USA) in 50 µl medium per well 24 h prior to drug treatment (seeding densities see Appendix Table S1). […] The final DMSO concentration in each well was 0.2%. […] Eight wells per plate without library drug served as negative controls, and sixteen wells per plate containing 5 µM Staurosporine served as positive controls. Control plates not containing any drug were used to correct for incubation effects, and data quality was assessed by calculation of Z-prime of positive and negative controls according to1 Z-prime=1−3SDpos+3SDneg/[…] where SD is the standard deviation. […] Dose–response curves from the experimental and hypothetical data were compared, and shifts in AUC were used to describe combination effects (AUC∆ = AUChypothetical − AUCexperimental). […] Only combinations with R^2 > 0.8 in both conditions were considered in the synergy analysis.
# [1] = system: HPDE (immortalized pancreatic duct cell line); assay: Drug combination viability screen (ATPlite, 72 h); format: cell-based, human; settings: single agent, HPDE;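 further: area under vehicle-normalized viability curve scaled 0 to 100 percent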
# Protocol: as §1, §2
# BxPC-3 [2] = assay: cells; parameters: ATPlite luminescence viability of PDAC cell lines, 11-dose single-agent curves, 4-parameter fit; settings: Homo sapiens, BXPC-3, 72 h, read-out: EC50 [nM]
# Method in brief: (§3)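 cells (1000 to 5000 per well) seeded 24 h before drug addition in a combination screen at 0.2% final DMSO. Controls were drug-free wells (negative) and 5 µM staurosporine (positive).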
# PaTu-8988-T [3] = assay: cells; parameters: ATPlite luminescence viability of PDAC cell lines, 11-dose single-agent curves, 4-parameter fit; settings: Homo sapiens, PaTu 8988t, 72 h, read-out: EC50 [nM]
# Method in brief: as §3
# Suit2-07 [4] = assay: cells; parameters: ATPlite luminescence viability of PDAC cell lines, 11-dose single-agent curves, 4-parameter fit; settings: 72 h, read-out: EC50 [nM]
# Method in brief: as §3
# Colo-357 [5] = assay: cells; parameters: ATPlite luminescence viability of PDAC cell lines, 11-dose single-agent curves, 4-parameter fit; settings: Homo sapiens, COLO357, 72 h, read-out: EC50 [nM]
# Method in brief: as §3
# MiaPaCa-2 [6] = assay: cells; parameters: ATPlite luminescence viability of PDAC cell lines, 11-dose single-agent curves, 4-parameter fit; settings: Homo sapiens, MIA PaCa-2, 72 h, read-out: EC50 [nM]
# Method in brief: as §3
# PANC-1 [7] = assay: cells; parameters: ATPlite luminescence viability of PDAC cell lines, 11-dose single-agent curves, 4-parameter fit; settings: Homo sapiens, PANC-1, 72 h, read-out: EC50 [nM]
# Method in brief: as §3
# PSN-1 [8] = assay: cells; parameters: ATPlite luminescence viability of PDAC cell lines, 11-dose single-agent curves, 4-parameter fit; settings: Homo sapiens, PSN1, 72 h, read-out: EC50 [nM]
# Method in brief: as §3
# HPDE [9] = assay: cells; parameters: ATPlite luminescence viability of PDAC cell lines, 11-dose single-agent curves, 4-parameter fit; settings: HPDE, 72 h, read-out: EC50 [nM]
# Method in brief: as §3
# Dan-G [10] = assay: cells; parameters: ATPlite luminescence viability of PDAC cell lines, 11-dose single-agent curves, 4-parameter fit; settings: 72 h, read-out: EC50 [nM]
# Method in brief: as §3
# HuP-T4 [11] = assay: cells; parameters: ATPlite luminescence viability of PDAC cell lines, 11-dose single-agent curves, 4-parameter fit; settings: Homo sapiens, HuP-T4, 72 h, read-out: EC50 [nM]
# Method in brief: as §3
# Capan-1 [12] = assay: cells; parameters: ATPlite luminescence viability of PDAC cell lines, 11-dose single-agent curves, 4-parameter fit; settings: Homo sapiens, CAPAN-1, 72 h, read-out: EC50 [nM]
# Method in brief: as §3
# FAMPAC [13] = assay: cells; parameters: ATPlite luminescence viability of PDAC cell lines, 11-dose single-agent curves, 4-parameter fit; settings: 72 h, read-out: EC50 [nM]
# Method in brief: as §3
# AsPC-1 [14] = assay: cells; parameters: ATPlite luminescence viability of PDAC cell lines, 11-dose single-agent curves, 4-parameter fit; settings: Homo sapiens, ASPC1, 72 h, read-out: EC50 [nM]
# Method in brief: as §3
# Colo-357 [15] = assay: cells; parameters: Viability of PDAC cell lines, ATPlite luminescence, 11-dose single-agent curve fit; settings: Homo sapiens, COLO357, 72 h, read-out: EC50 [nM]
# Method in brief: (§4)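 cells (1000 to 5000 per well) seeded 24 h before drug addition in a screen at 0.2% final DMSO. Controls were drug-free wells (negative) and 5 µM staurosporine (positive).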
# PANC-1 [16] = assay: cells; parameters: Viability of PDAC cell lines, ATPlite luminescence, 11-dose single-agent curve fit; settings: Homo sapiens, PANC-1, 72 h, read-out: EC50 [nM]
# Method in brief: as §4
# HuP-T4 [17] = assay: cells; parameters: Viability of PDAC cell lines, ATPlite luminescence, 11-dose single-agent curve fit; settings: Homo sapiens, HuP-T4, 72 h, read-out: EC50 [nM]
# Method in brief: as §4
# Capan-1 [18] = assay: cells; parameters: Viability of PDAC cell lines, ATPlite luminescence, 11-dose single-agent curve fit; settings: Homo sapiens, CAPAN-1, 72 h, read-out: EC50 [nM]
# Method in brief: as §4
# BxPC-3 [19] = assay: cells; parameters: Viability of PDAC cell lines, ATPlite luminescence, 11-dose single-agent curve fit; settings: Homo sapiens, BXPC-3, 72 h, read-out: EC50 [nM]
# Method in brief: as §4
# PaTu-8988-T [20] = assay: cells; parameters: Viability of PDAC cell lines, ATPlite luminescence, 11-dose single-agent curve fit; settings: Homo sapiens, PaTu 8988t, 72 h, read-out: EC50 [nM]
# Method in brief: as §4
# HPDE [21] = assay: cells; parameters: Viability of PDAC cell lines, ATPlite luminescence, 11-dose single-agent curve fit; settings: HPDE, 72 h, read-out: EC50 [nM]
# Method in brief: as §4
# AsPC-1 [22] = assay: cells; parameters: Viability of PDAC cell lines, ATPlite luminescence, 11-dose single-agent curve fit; settings: Homo sapiens, ASPC1, 72 h, read-out: EC50 [nM]
# Method in brief: as §4
# Suit2-07 [23] = assay: cells; parameters: Viability of PDAC cell lines, ATPlite luminescence, 11-dose single-agent curve fit; settings: 72 h, read-out: EC50 [nM]
# Method in brief: as §4
# MiaPaCa-2 [24] = assay: cells; parameters: Viability of PDAC cell lines, ATPlite luminescence, 11-dose single-agent curve fit; settings: Homo sapiens, MIA PaCa-2, 72 h, read-out: EC50 [nM]
# Method in brief: as §4
# PSN-1 [25] = assay: cells; parameters: Viability of PDAC cell lines, ATPlite luminescence, 11-dose single-agent curve fit; settings: Homo sapiens, PSN1, 72 h, read-out: EC50 [nM]
# Method in brief: as §4
# Dan-G [26] = assay: cells; parameters: Viability of PDAC cell lines, ATPlite luminescence, 11-dose single-agent curve fit; settings: 72 h, read-out: EC50 [nM]
# Method in brief: as §4
# FAMPAC [27] = assay: cells; parameters: Viability of PDAC cell lines, ATPlite luminescence, 11-dose single-agent curve fit; settings: 72 h, read-out: EC50 [nM]
# Method in brief: as §4
SMILES,median AUC across all cell lines (13 PDAC cell lines),EC50 (BxPC-3 [2]),EC50 (PaTu-8988-T [3]),EC50 (Suit2-07 [4]),EC50 (Colo-357 [5]),EC50 (MiaPaCa-2 [6]),EC50 (PANC-1 [7]),EC50 (PSN-1 [8]),EC50 (HPDE [9]),EC50 (Dan-G [10]),EC50 (HuP-T4 [11]),EC50 (Capan-1 [12]),EC50 (FAMPAC [13]),EC50 (AsPC-1 [14]),EC50 (PANC-1 [16]),EC50 (HuP-T4 [17]),other results
CCc1cnn2c(NCc3ccc[n+]([O-])c3)cc(N3CCCC[C@H]3CCO)nc12 [Dinaciclib],40%,,,,,,,,,,,,,,,,"synergy with GEM (Bliss model, ΣAUC∆ > 10%) (13 PDAC cell lines): No synergy; AUC [1]: 38%"
COc1c(OCCCN2CCOCC2)ccc2c1N=C(NC(=O)c1cnc(N)nc1)N1CCN=C21 [Copanlisib],< 70%,113 nM,101 nM,108 nM,17.6 nM,65.6 nM,58.8 nM,787 nM,283 nM,29.8 nM,48 nM,21.6 nM,1110 nM,175 nM,,,
O=C(c1ccc(F)c(F)c1Nc1ccc(I)cc1F)N1CC(O)([C@@H]2CCCCN2)C1 [Cobimetinib],< 70%,101 nM,5570 nM,752 nM,5300 nM,6.21 nM,> 10000 nM,12.3 nM,4490 nM,> 10000 nM,> 10000 nM,8510 nM,39.5 nM,13.7 nM,,,
CC(=O)Nc1cccc(-n2c(=O)n(C3CC3)c(=O)c3c(Nc4ccc(I)cc4F)n(C)c(=O)c(C)c32)c1 [Trametinib],< 70%,13.1 nM,7.98 nM,8.92 nM,,3.92 nM,,5.34 nM,7 nM,1.4 nM,,,9.21 nM,3.02 nM,45.6 nM,8.2 nM,EC50 (Colo-357 [15]): 1160 nM; EC50 (Capan-1 [18]): 88.1 nM
Cn1ncnc1[C@H]1c2n[nH]c(=O)c3cc(F)cc(c23)N[C@@H]1c1ccc(F)cc1 [Talazoparib],,,,113 nM,355 nM,825 nM,,405 nM,,268 nM,,507 nM,693 nM,,1590 nM,6060 nM,"EC50 (BxPC-3 [19]): 2960 nM; EC50 (PaTu-8988-T [20]): > 10000 nM; EC50 (HPDE [21]): > 10000 nM; EC50 (AsPC-1 [22]): 2650 nM; number of cell lines with synergy with GEM (13 PDAC cell lines; of 13 cell lines, Bliss model): two"
CC[C@@H]1C(=O)N(C)c2cnc(Nc3ccc(C(=O)N[C@H]4CC[C@H](N5CCN(CC6CC6)CC5)CC4)cc3OC)nc2N1C(C)C [Volasertib],54%,25.2 nM,33.8 nM,19 nM,19.8 nM,12.8 nM,37.7 nM,16.4 nM,> 10000 nM,29.1 nM,> 10000 nM,32.3 nM,19.9 nM,21.1 nM,,,"synergy with GEM (Bliss model, ΣAUC∆ > 10%) (13 PDAC cell lines): No synergy"
CO[C@H]1C[C@@H]2CC[C@@H](C)[C@@](O)(O2)C(=O)C(=O)N2CCCC[C@H]2C(=O)O[C@H]([C@H](C)C[C@@H]2CC[C@@H](OC(=O)C(C)(CO)CO)[C@H](OC)C2)CC(=O)[C@H](C)/C=C(\C)[C@@H](O)[C@@H](OC)C(=O)[C@H](C)C[C@H](C)/C=C/C=C/C=C/1C [Temsirolimus],> 80%,,,,,,,,,,,,,,29.2 nM,30.2 nM,EC50 (BxPC-3 [19]): 0.06 nM; EC50 (PaTu-8988-T [20]): 0.57 nM; EC50 (Suit2-07 [23]): 0.35 nM; EC50 (Colo-357 [15]): 4160 nM; EC50 (MiaPaCa-2 [24]): 2.17 nM; EC50 (PSN-1 [25]): 0.57 nM; EC50 (HPDE [21]): 0.19 nM; EC50 (Dan-G [26]): 1.3 nM; EC50 (Capan-1 [18]): 0.08 nM; EC50 (FAMPAC [27]): 0.13 nM; EC50 (AsPC-1 [22]): 1.54 nM
O=C(Cc1ccc(-c2ccc(OCCN3CCOCC3)cc2)cn1)NCc1ccccc1 [Tirbanibulin],60%,29.9 nM,33 nM,45 nM,37.7 nM,26.3 nM,28.6 nM,30.7 nM,39.9 nM,31.9 nM,,43.4 nM,33.1 nM,41.9 nM,,10300 nM,
